Assay results as given in US20240226000A9, “TRANSDERMAL PENETRANT FORMULATIONS FOR ADMINISTRATION OF MEDICAMENTS” (Dyve Biosciences, Inc., priority 2021, published 2024).
Where a name gives a salt, the structure may show the parent alone. Read-outs that look alike come from different tables or passages of the source.

Assays:
[1] = cited from earlier work
[2] = Transdermal delivery of aqueous insoluble molecules, bioavailability in mice (Example 32)
Excerpt: (§1) In this example, mice were transdernally treated with formulations of the present disclosure comprising essentially insoluble class 2 or class 4 molecules.

[3] = Solubility of actives in aqueous medium / percent solution
Excerpt: as §1

[4] = Pharmacokinetics study of eletriptan cream formulations (topical) and oral gavage in adult mice; conditions: male, mouse, in vivo, 52 mg/kg
Procedure: Using the calibration curve, concentrations of eletriptan in the serum samples were calculated.

[5] = table of Class 2 and Class 4 API examples
[6] = mouse, in vivo, topical or ocular
[7] = table of kinase inhibitor examples

## C[C@]12C=CC(=O)N[C@@H]1CC[C@@H]1[C@@H]2CC[C@]2(C)[C@@H](C(=O)Nc3cc(C(F)(F)F)ccc3C(F)(F)F)CC[C@@H]12 [Dutasteride]
[1]; [5]
  BCS Class: 2/4

## O=C(CCCN1CCC(O)(c2ccc(Cl)cc2)CC1)c1ccc(F)cc1 [Haloperidol]
[1]; [5]
  BCS Class: 2/4

## CN[C@H](CC(C)C)C(=O)N[C@H]1C(=O)N[C@@H](CC(N)=O)C(=O)N[C@H]2C(=O)N[C@H]3C(=O)N[C@H](C(=O)N[C@H](C(=O)O)c4cc(O)cc(O)c4-c4cc3ccc4O)[C@H](O)c3ccc(c(Cl)c3)Oc3cc2cc(c3O[C@@H]2O[C@H](CO)[C@@H](O)[C@H](O)[C@H]2O[C@H]2C[C@](C)(N)[C@H](O)[C@H](C)O2)Oc2ccc(cc2Cl)[C@H]1O [vancomycin]
[2]; mice transdermally treated with a formulation comprising the molecule
  bioavailability after transdermal delivery: improved bioavailability

## CCOc1cc2ncc(C#N)c(Nc3ccc(OCc4ccccn4)c(Cl)c3)c2cc1NC(=O)/C=C/CN(C)C [Neratinib − Free Base]
[3]; share of the active in solution, the cell beside it prints the amount in the formulation (3.5, 4.23, 3.6, 8, 15), not a dose range
  % Solution (Relative Dosing): <1%

## CCCc1nn(C)c2c(=O)[nH]c(-c3cc(S(=O)(=O)N4CCN(C)CC4)ccc3OCC)nc12 [Sildenafil Citrate]
[3]
  % Solution (Relative Dosing): <1%
  Estimated Active % in Solution: <1%
  solubility in aqueous medium: ≤ 1%
[2]; [6]
  AUC(0-inf): 9660 ng·h/mL
  Cmax: 4390 ng/mL
  Tmax: 30 min
  bioavailability after transdermal delivery: high or relatively high bioavailability
  half-life: 56.4 min

## CCCCC(F)(F)[C@@]1(O)CC[C@H]2[C@@H](CC(=O)[C@@H]2CCCCCCC(=O)O)O1 [Lubiprostone]
[1]; [5]
  BCS Class: 2/4

## COC(=O)c1ccc2c(c1)NC(=O)/C2=C(\Nc1ccc(N(C)C(=O)CN2CCN(C)CC2)cc1)c1ccccc1 [Nintedanib]
[1]; [7]
  BCS Class: 2/4

## COc1cc2nccc(Oc3ccc(NC(=O)Nc4cc(C)on4)c(Cl)c3)c2cc1OC [Tivozanib]
[1]; [7]
  BCS Class: 2/4

## CC1=C(/C=C/C(C)=C/C=C/C(C)=C/CO)C(C)(C)CCC1 [Retinol]
[1]; [5]
  BCS Class: 2/4

## CNC(=O)c1ccc(-c2cnc3ncc(Cc4ccc5ncccc5c4)n3n2)cc1F [Capmatinib]
[1]; [7]
  BCS Class: 2/4

## O=C(Nc1ccc([N+](=O)[O-])cc1Cl)c1cc(Cl)ccc1O [Niclosamide]
[1]; [5]
  BCS Class: 2/3

## COC(=O)Nc1nc2ccc(C(=O)c3ccccc3)cc2[nH]1 [Mebendazole]
[1]; [5]
  BCS Class: 2/4

## CN(C)CCCN1c2ccccc2Sc2ccc(Cl)cc21 [Chlorpromazine]
[1]; [5]
  BCS Class: 2/4

## O=C1Nc2ccc(Cl)cc2[C@@](C#CC2CC2)(C(F)(F)F)O1 [Efavirenz]
[1]; [5]
  BCS Class: 2/4

## CN1CCC[C@@H]1Cc1c[nH]c2ccc(CCS(=O)(=O)c3ccccc3)cc12 [Eletriptan Hydrobromide]
[4]
  AUC(0-inf): 1880 ng·h/mL
  AUC(0-t): 1810 ng·h/mL
  Cmax: 634 ng/mL
  Tmax: 60 min
  concentration at 0.5 h: 623 ng/mL
  concentration at 1 h: 634 ng/mL
  concentration at 2 h: 431 ng/mL
  concentration at 4 h: 107 ng/mL
  concentration at 8 h: 30 ng/mL
  half-life: 97.8 min
  kel: 0.43 h⁻¹

## CC(=O)S[C@@H]1CC2=CC(=O)CC[C@]2(C)[C@H]2CC[C@@]3(C)[C@@H](CC[C@@]34CCC(=O)O4)[C@H]12 [Spironolactone]
[1]; [5]
  BCS Class: 2/4

## CN(C(=O)C(Cl)Cl)c1ccc(O)cc1 [Diloxanide]
[1]; [5]
  BCS Class: 2/4

## Nc1nc2ncc(CNc3ccc(C(=O)N[C@@H](CCC(=O)O)C(=O)O)cc3)nc2c(=O)[nH]1 [Folic acid]
[1]; [5]
  BCS Class: 2/4

## CN(Cc1cnc2nc(N)nc(N)c2n1)c1ccc(C(=O)N[C@@H](CCC(=O)O)C(=O)O)cc1 [Methotrexate]
[1]; [5]
  BCS Class: 3/4

## C=C1/C(=C\C=C2/CCC[C@]3(C)[C@@H]([C@H](C)/C=C/[C@H](C)C(C)C)CC[C@@H]23)C[C@@H](O)C[C@@H]1O [Doxercalciferol]
[1]; [5]
  BCS Class: 2/4

## C[C@H]1c2cccc(O)c2C(=O)C2=C(O)[C@]3(O)C(=O)C(C(N)=O)=C(O)[C@@H](N(C)C)[C@@H]3[C@@H](O)[C@@H]21 [doxycycline]
[2]; [6]
  bioavailability after transdermal delivery: improved bioavailability
